How the values were obtained:
Bmi-1 [1] = assay: Sandwich ELISA Assay (Bmi-1 ELISA in HT-1080 cells); type: cell-based, human
In short: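 Lysate Bmi-1 was quantified against a recombinant GST-Bmi-1 standard (0-8000 pg/mL) by sandwich ELISA read at OD450 with OD570 reference. The ELISA used mouse monoclonal capture, rabbit anti-Bmi-1, HRP anti-rabbit IgG and TMB. Before lysis, HT-1080 cells seeded at 8000/well were exposed to compounds for 40-48 h at 37°C with 0.5% final DMSO.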

Bmi-1 [2] = assay: Cell Model Assay: Bmi-1 expression in HT1080; type: cell-based, human; settings: HT1080 (fibrosarcoma)
Method: (§1) Using assay conditions known to those skilled in the art, the ability of the compounds described herein to reduce Bmi-1 expression in HT1080 (fibrosarcoma), U87-MG (glioblastoma), T98G (glioblastoma), K562 (chronic myelogenous leukemia) and KG1 (acute myelogenous leukemia) cell lines was tested (at test compound concentrations calculated from the ELISA assay data shown in Example 1) compared to puromycin as a control to provide the EC50 values shown in Table 2. The term “ND” means that data was not determined.

Bmi-1 [3] = assay: Cell Model Assay: Bmi-1 expression in K562; type: cell-based; settings: K562 (chronic myelogenous leukemia)
Method: as §1

Bmi-1 [4] = assay: Cell Model Assay: Bmi-1 expression in KG1; type: cell-based; settings: KG1 (acute myelogenous leukemia)
Method: as §1

MCL-Jeko = assay: Mantle Cell Lymphoma Assay: cytotoxicity, Jeko; type: cell-based; settings: for Cell Concentration (×10^6): MCL-Jeko, 72 hrs; for Cell Concentration, MCL-Jeko: 72 hrs in culture
Description: (§2) MCL cell lines Jeko, Mino, and Rec-1 were provided by American Type Culture Collection: The Bioresource Center (Manassas, Va.). […] Carlsbad, Calif.) in T-75 culture flasks. Cell concentration was maintained between 2 to 3×10^5 cells/mL. Early passage cells (passages 2-4) were used for all experiments. Ficoll-Histopaque density sedimentation (Sigma Aldrich) was used for separation of debris and purification of cell lines prior to experiments. […] The cytotoxic effect of test compounds on the MCL-cell lines was assessed by measuring cell concentration and cell viability using a Beckman Coulter Vi-Cell Counter. Controls and treated cells were harvested and counted at day 3.

MCL-Mino = assay: Mantle Cell Lymphoma Assay: cytotoxicity, Mino; type: cell-based; settings: for Cell Concentration (×10^6): MCL-Mino, 72 hrs; for Cell Concentration, MCL-Mino: 72 hrs in culture
Description: as §2

MCL-Rec1 = assay: Mantle Cell Lymphoma Assay: cytotoxicity, Rec-1; type: cell-based; settings: for Cell Concentration (×10^6): 72 hrs; for Cell Concentration, MCL-Rec1: 72 hrs in culture
Description: as §2

MM cell line = assay: Multiple Myeloma Assay; type: cell-based; settings: 72 hrs in culture
Bmi-1 [5] = assay: Cell Model Assay: Bmi-1 expression in U87-MG; type: cell-based; settings: U87-MG (glioblastoma)
Method: as §1

Bmi-1 [6] = assay: Cell Model Assay: Bmi-1 expression in T98G; type: cell-based; settings: T98G (glioblastoma)
Method: as §1

## COc1cc(Br)c(Nc2nc(-c3cnc4ccc(Cl)cn34)cs2)c(Br)c1 [Cpd 24, 4-(6-chloroimidazo[1,2-a]pyridine-3-yl)-N-(2,6-dibromo-4-methoxyphenyl)thiazol-2-amine]
Bmi-1 [1]
  IC50: < 500 nM
Bmi-1 [2]
  EC50: 310 nM
Bmi-1 [3]
  EC50: 76 nM
Bmi-1 [4]
  EC50: 120 nM
MCL-Jeko; 0.004 μM
  Cell Concentration (×10^6): 1.95 ± 0.04 ×10^6
MCL-Jeko; 0.037 μM
  Cell Concentration (×10^6): 1.94 ± 0.02 ×10^6
MCL-Jeko; 0.11 μM
  Cell Concentration (×10^6): 1.92 ± 0.01 ×10^6
MCL-Jeko; 0.33 μM
  Cell Concentration (×10^6): 1.80 ± 0.03 ×10^6
MCL-Jeko; 1 μM
  Cell Concentration (×10^6): 0.76 ± 0.27 ×10^6
MCL-Jeko; 3 μM
  Cell Concentration (×10^6): 0.14 ± 0.01 ×10^6
MCL-Mino; 0.004 μM
  Cell Concentration (×10^6): 0.63 ± 0.01 ×10^6
MCL-Mino; 0.037 μM
  Cell Concentration (×10^6): 0.63 ± 0.01 ×10^6
MCL-Mino; 0.11 μM
  Cell Concentration (×10^6): 0.62 ± 0.01 ×10^6
MCL-Mino; 0.33 μM
  Cell Concentration (×10^6): 0.55 ± 0.01 ×10^6
MCL-Mino; 1 μM
  Cell Concentration (×10^6): 0.28 ± 0.02 ×10^6
MCL-Mino; 3 μM
  Cell Concentration (×10^6): 0.05 ± 0.01 ×10^6
MCL-Rec1; MCL-Rec1, 0.004 μM
  Cell Concentration (×10^6): 0.36 ± 0.02 ×10^6
MCL-Rec1; MCL-Rec1, 0.037 μM
  Cell Concentration (×10^6): 0.34 ± 0.01 ×10^6
MCL-Rec1; MCL-Rec1, 0.11 μM
  Cell Concentration (×10^6): 0.34 ± 0.01 ×10^6
MCL-Rec1; MCL-Rec1, 0.33 μM
  Cell Concentration (×10^6): 0.31 ± 0.01 ×10^6
MCL-Rec1; MCL-Rec1, 1 μM
  Cell Concentration (×10^6): 0.06 ± 0.01 ×10^6
MCL-Rec1; MCL-Rec1, 3 μM
  Cell Concentration (×10^6): 0.01 ± 0.00 ×10^6
MM cell line; dose 0.004 μM
  Cell Concentration, MM cell line: 1.37 ± 0.03 ×10^6
MM cell line; dose 0.037 μM
  Cell Concentration, MM cell line: 1.38 ± 0.04 ×10^6
MM cell line; dose 0.11 μM
  Cell Concentration, MM cell line: 1.23 ± 0.01 ×10^6
MM cell line; dose 0.33 μM
  Cell Concentration, MM cell line: 0.59 ± 0.04 ×10^6
MM cell line; dose 1 μM
  Cell Concentration, MM cell line: 0.34 ± 0.14 ×10^6
MM cell line; dose 3 μM
  Cell Concentration, MM cell line: 0.17 ± 0.01 ×10^6

## COc1cc(C)c(Nc2nc(-c3cnc4ccc(Cl)cn34)cs2)c(C)c1 [Cpd 27, 4-(6-chloroimidazo[1,2-a]pyridine-3-yl)-N-(4-methoxy-2,6-dimethylphenyl)thiazol-2-amine]
Bmi-1 [1]
  IC50: < 500 nM
Bmi-1 [2]
  EC50: 410 nM
Bmi-1 [5]
  EC50: 1200 nM
Bmi-1 [6]
  EC50: 91 nM
Bmi-1 [3]
  EC50: 55 nM
Bmi-1 [4]
  EC50: 128 nM
MCL-Jeko; dose 0.004 μM
  Cell Concentration, MCL-Jeko: 1.98 ± 0.03 ×10^6
MCL-Jeko; dose 0.037 μM
  Cell Concentration, MCL-Jeko: 1.99 ± 0.02 ×10^6
MCL-Jeko; dose 0.11 μM
  Cell Concentration, MCL-Jeko: 1.96 ± 0.05 ×10^6
MCL-Jeko; dose 0.33 μM
  Cell Concentration, MCL-Jeko: 1.77 ± 0.02 ×10^6
MCL-Jeko; dose 1 μM
  Cell Concentration, MCL-Jeko: 1.46 ± 0.02 ×10^6
MCL-Jeko; dose 3 μM
  Cell Concentration, MCL-Jeko: 0.34 ± 0.04 ×10^6
MCL-Mino; dose 0.004 μM
  Cell Concentration, MCL-Mino: 0.62 ± 0.02 ×10^6
MCL-Mino; dose 0.037 μM
  Cell Concentration, MCL-Mino: 0.64 ± 0.01 ×10^6
MCL-Mino; dose 0.11 μM
  Cell Concentration, MCL-Mino: 0.59 ± 0.03 ×10^6
MCL-Mino; dose 0.33 μM
  Cell Concentration, MCL-Mino: 0.57 ± 0.01 ×10^6
MCL-Mino; dose 1 μM
  Cell Concentration, MCL-Mino: 0.41 ± 0.00 ×10^6
MCL-Mino; dose 3 μM
  Cell Concentration, MCL-Mino: 0.09 ± 0.00 ×10^6
MCL-Rec1; dose 0.004 μM
  Cell Concentration, MCL-Rec1: 1.66 ± 0.06 ×10^6
MCL-Rec1; dose 0.037 μM
  Cell Concentration, MCL-Rec1: 1.65 ± 0.03 ×10^6
MCL-Rec1; dose 0.11 μM
  Cell Concentration, MCL-Rec1: 1.63 ± 0.04 ×10^6
MCL-Rec1; dose 0.33 μM
  Cell Concentration, MCL-Rec1: 1.53 ± 0.01 ×10^6
MCL-Rec1; dose 1 μM
  Cell Concentration, MCL-Rec1: 1.24 ± 0.03 ×10^6
MCL-Rec1; dose 3 μM
  Cell Concentration, MCL-Rec1: 0.09 ± 0.01 ×10^6
MM cell line; dose 0.004 μM
  Cell Concentration, MM cell line: 1.46 ± 0.01 ×10^6
MM cell line; dose 0.037 μM
  Cell Concentration, MM cell line: 1.36 ± 0.07 ×10^6
MM cell line; dose 0.11 μM
  Cell Concentration, MM cell line: 1.30 ± 0.01 ×10^6
MM cell line; dose 0.33 μM
  Cell Concentration, MM cell line: 0.80 ± 0.01 ×10^6
MM cell line; dose 1 μM
  Cell Concentration, MM cell line: 0.17 ± 0.00 ×10^6
MM cell line; dose 3 μM
  Cell Concentration, MM cell line: 0.2 ± 0.05 ×10^6
